{
  "source": "patent US20240116985A1",
  "about": "“STAPLED PEPTIDES AND METHODS THEREOF” (priority 2020, published 2024)",
  "test_system": "TCF/LEF luciferase Reporter in DLD1 cells",
  "experiment": "TCF reporter assay (DLD1 TCF/LEF luciferase reporter, Bright-Glo)",
  "type": "cell-based",
  "settings": "read-out: DLD1 4% Abs IC50; DLD1 4%",
  "outline": "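DLD1 cells stably carrying a TCF/LEF luciferase reporter were plated at 5000 cells/well in RPMI + 4% FBS and treated overnight with a 1:2 compound dilution series. Bright-Glo luminescence read on day 3; viability by CellTiter-Glo. Absolute IC50 determined.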",
  "data": [
    {"smiles": "CC(=O)N1CCC[C@]12CC=CCCCC1(CCCC=CCCCOC(=O)N3CC[C@@](C(=O)N[C@@H](Cc4ccsc4)C(=O)N[C@@H](Cc4csc5ccccc45)C(=O)N[C@@H](CCC(N)=O)C(=O)N[C@H](C)C(N)=O)(C3)NC(=O)[C@H](CC(N)=O)NC(=O)[C@H](Cc3ccccc3)NC(=O)[C@H](C)NC(=O)[C@H](C)NC(=O)[C@H](CC(=O)O)NC(=O)[C@H](CC(=O)O)NC1=O)NC(=O)[C@H](CC(C)(C)C)NC(=O)[C@H](CC(=O)O)NC2=O", "note": "(stereo partly drawn) [I-822, Ac-PL3-Asp-Npg-B5-Asp-Asp-Ala-Ala-Phe-Asn-PyrS2-3Thi-BztA-Gln-dAla-NH2]", "values": [
      {"measurement": "IC50", "value": 7.2, "unit": "µM"}
    ]}
  ]
}
